Assay results reported in BindingDB's records for doi:10.1016/S0960-894X(00)80673-3 (1993).
pKi: −log10 of the molar value.

Molecular target: HIV-2 protease (Human immunodeficiency virus 2)
Assay: Tested for the inhibition of HIV-2 protease

pKi: 7.19
SMILES: CCC(C)[C@H](NC(=O)[C@@H](C[C@H](O)[C@H](CC1CCCCC1)NC(=O)[C@H](CC(N)=O)NC(=O)c1ccc2ccccc2n1)C(C)C)C(=O)NCc1ccccn1 (stereo partly drawn) [(S)-N*1*-((1S,2S,4S)-1-Cyclohexylmethyl-2-hydroxy-5-methyl-4-{(S)-2-methyl-1-[(pyridin-2-ylmethyl)-carbamoyl]-butylcarbamoyl}-hexyl)-2-[(quinoline-2-carbonyl)-amino]-succinamide]
